In patent publication US20070173416A1, “Well treatment compositions for use in acidizing a well” (Halliburton Energy Services, Inc., priority 2006, published 2007):
Counter-ions that a name gives are not always drawn. Like-named read-outs stand apart in the source and are kept apart here.

Experiments:
[1] = at 100° C.; cited from earlier work
[2] = physchem; conditions: for Half-Life in Neutral Water at 100° C. / half-life: buffer; for hydrolysis rate / reaction rate (comparison in words): deionized water
Procedure: In the following examples, various ester hydrolysis reactions were run in the presence of calcium carbonate (CaCO3) to simulate the consumption of filter cake material. The acid evolved in each reaction was measured per unit of time. The acid generated upon hydrolysis was rapidly consumed in a secondary reaction that produced carbon dioxide (CO2). The half-life was secured when half of the CaCO3 was consumed. That is, using PV=nRT, the amount of CaCO3 that would yield approximately 1 liter of CO2 was calculated to be about 4.47 grams. We doubled the amount of CaCO3 (8.94 grams) for the reactions and then calculated the half-life based on the yield of 1 liter of CO2. Unless otherwise specified, all half-life quotations are actually the time required for 4.47 grams of CaCO3 to be consumed.
The following general procedure was used in each of the examples. The closed system reactor shown in FIG. 1 was used to measure the amount of CO2 gas that evolved in each reaction. Water or brine was added to a boiling flask 10, which was heated to 100° C. […] Once the liquid was boiling, a weighed amount of ester was added to flask 10. The amount of ester employed was always in ratio to the water or to the make-up water used to formulate the brine except where commercially available brines were used. Following addition of the ester to the boiling liquid, a reflux condenser 12 was affixed to flask 10. The top of condenser 12 was fixed with an adapter 14 to an inlet tube 18 in a 2-hole rubber stopper 16. The inlet tube 18 was passed through stopper 16, providing a seal. An outlet tube 22 was run from the bottom of a flask 20 to a 1,000 mL graduated cylinder 24. The flask 20 was charged with XP-07 base oil, commercially available from Halliburton Energy Services, Inc. The outlet tube 22 served the purpose of discharging the oil into graduated cylinder 24. The hydrolysis reaction produced acid in flask 10 that reacted with the CaCO3 to produce CO2 gas. The gas displaced the oil in flask 20 into graduated cylinder 24. The rate of CO2 evolution thus could be monitored visually by reading of the amount of oil in graduated cylinder 24 per unit of time.
Solutions containing various esters of lactic acid and of glycerol (i.e., monoacetin, ethyl lactate, triacetin, tripropionin), butyl formate (a control), and BDF-325 diethyleneglycol diformate (a control) in neutral water were prepared and combined with a molar ratio of CaCO3. Hydrolysis reactions were then carried out using the resulting solutions at 100° C. The hydrolysis reactions were monitored, and the half-lives of the esters were compared. The volume of oil displaced by the CO2 gas is plotted as a function of time in FIG. 2. […] The butyl formate to CaCO3 molar ratio was doubled for comparison purposes.
Solutions containing 10 volume % monoacetin, diacetin, and triacetin in deionized water were prepared and combined with a molar ratio of CaCO3. Hydrolysis reactions were then carried out using the resulting solutions at 100° C. The hydrolysis reactions were monitored, and the half-lives of the esters were compared. The volume of oil displaced by the CO2 gas is plotted as a function of time in FIG. 3.

[3] = Solubility in water; assay type: physicochemical
[4] = hydrolysis in neutral water at 100° C.
[5] = Half-Life in Neutral Water at 100° C.

| SMILES | Pseudo First Order Rate Constant [2, 4] | half-life [2, 5] [h] | hydrolysis rate / reaction rate (comparison in words) ([2]; 100° C.) | also measured |
| --- | --- | --- | --- | --- |
| CCCCOC(=O)C(C)O (centres unmarked) [Butyl lactate] | 9.03 × 10^−6 sec.^−1 | 21.3 | faster than that of the butyl formate | solubility in water [3]: slightly soluble |
| CCC(=O)OCC(COC(=O)CC)OC(=O)CC [Tripropionin] |  |  |  | Pseudo First Order Rate Constant [2]: 1.05 × 10^−5 sec.^−1; Half-Life in Neutral Water at 100° C. [2]: 32,344.83 seconds |
| CCCCOC=O [butyl formate, reference compound] |  |  | slow reaction rate | solubility in water [3]: poor solubility |
| COC(=O)C(C)O (centres unmarked) [Methyl lactate] | 2.1 × 10^−5 sec.^−1 | 2.71 |  |  |
| CCOC(=O)C(C)O (centres unmarked) [Ethyl Lactate] | 2.2 × 10^−5 sec.^−1 | 8.71 |  | hydrolysis in deionized water and various brines ([2]; 10 volume % in deionized water and various brines, 100° C.): performed consistently; half-life ([2]; half-life): 10 to 11 h |
| CC(=O)O [acetic acid] |  |  |  | strength of the acid (pH) [1]: 4.76 |
| O=COCCOCCOC=O [diethyleneglycol diformate, reference compound] |  |  |  | half-life ([2]; half-life): 0.3 to 0.333 h |

Further lines, with some results ahead:

| Pseudo First Order Rate Constant [2, 4] | half-life [2, 5] [h] | hydrolysis rate / reaction rate (comparison in words) ([2]; 100° C.) | SMILES | also measured |
| --- | --- | --- | --- | --- |
| 1.8 × 10^−5 sec.^−1 |  |  | CC(=O)OCC(O)CO (centres unmarked) [Monoacetin] | half-life versus targeted range (greater than 10 hours at 100° C. desired) ([2]; 10 volume % in deionized water, 100° C.): within the targeted range; consumed more slowly relative to the other two acetins ([2]; 10 volume % in deionized water, 100° C., vs triacetin and diacetin): 4-5 times; Half-Life in Neutral Water at 100° C. [2]: 38,400 seconds |
| 4.75 × 10^−5 sec.^−1 |  | very similar | CC(=O)OCC(O)COC(C)=O [Diacetin] | Half-Life in Neutral Water at 100° C. [2]: 14,600 seconds |
| 7.4 × 10^−6 sec.^−1 | 25.8 |  | CCCOC(=O)C(C)O (centres unmarked) [Propyl lactate] |  |
| 7.04 × 10^−5 sec.^−1 | 2.73 | very similar | CC(=O)OCC(COC(C)=O)OC(C)=O [Triacetin] |  |
